Read-outs that look alike come from different tables or passages of the source.
Columns and labels:
[1] = test system: human bladder cancer strain UM-UC-3; type: cell-based
Description: A test compound was dispensed into a U-bottom 384-well plate as 40 nL serially diluted dimethyl sulfoxide solutions using a liquid handler Echo (LABCYTE). As for human bladder cancer strain UM-UC-3 (ATCC), a cell suspension was prepared so as to have 250 cells/40 µL in an MEM medium (Nacalai Tesque) supplemented with 10% fetal bovine serum (Sigma), an MEM non-essential amino acids solution (100X), and 1 mmol/L sodium pyruvate. This cell suspension was dispensed in an amount of 40 µL per well into a plate containing the test compound, and cultured at 37°C in a 5% carbon dioxide gas incubator. Seven days later, 20 µL of CellTiter-Glo (registered trademark) (Promega) was added to each well and luminescence was measured. […]

[2] = target: HRAS wild-type protein (Homo sapiens, UniProt P01112); test: Binding to HRAS by surface plasmon resonance (SPR), KD and KD ratio to KRAS
Method in brief: (§1)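 Measured at 30°C: SPR with GDP-loaded, E. coli-expressed biotin-Avi RAS captured (~100–300 RU), ascending 75 s compound injections, HBS pH 7.4 with GDP, MgCl2, 4% DMSO. KD from 1:1 fit.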

[3] = target: GDP-bound NRAS wild-type protein (Homo sapiens, UniProt P01111); test: Binding to NRAS by surface plasmon resonance (SPR), KD and KD ratio to KRAS
Method in brief: as §1

[4] = test system: human gastric cancer strain SNU-1; type: cell-based
Description: (§2) A test compound was dispensed into a U-bottom 384-well plate as 40 nL serially diluted dimethyl sulfoxide solutions using a liquid handler Echo (LABCYTE). As for human gastric cancer strain SNU-1 (ATCC), a cell suspension was prepared so as to have 250 cells/40 µL in an RPMI-1640 medium (Sigma) supplemented with 10% fetal bovine serum (Sigma), a 2.5 g/L D-(+)-glucose solution, 10 mmol/L HEPES, and 1 mmol/L sodium pyruvate. This cell suspension was dispensed in an amount of 40 µL per well into a plate containing the test compound, and cultured at 37°C in a 5% carbon dioxide gas incubator. Seven days later, 20 µL of CellTiter-Glo (registered trademark) (Promega) was added to each well and luminescence was measured.

[5] = test system: human gastric cancer strain GSU; type: cell-based
Description: as §2, with “GSU (Institute of Physical and Chemical Research),” for “SNU-1 (ATCC),”, “200” for “250”, “(Sigma).” for “(Sigma), a 2.5 g/L D-(+)-glucose solution, 10 mmol/L HEPES, and 1 mmol/L sodium pyruvate.”

[6] = test system: human lung cancer strain NCI-H441; type: cell-based
Method in brief: (§3)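 Signal came from […] measured per well once the reagent was added. Beforehand, cells were cultured at 37°C and 5% carbon dioxide on a compound series serially diluted in dimethyl sulfoxide.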

[7] = test system: human ovarian cancer strain OV7; type: cell-based
Description: A test compound was dispensed into a U-bottom 384-well plate as 40 nL serially diluted dimethyl sulfoxide solutions using a liquid handler Echo (LABCYTE). As for human ovarian cancer strain OV7 (ECACC), a cell suspension was prepared so as to have 250 cells/40 µL in a DMEM/Ham's F-12 medium (Nacalai Tesque) supplemented with 5% fetal bovine serum (Sigma), 0.5 µg/mL hydrocortisone, and 10 µg/mL insulin. This cell suspension was dispensed in an amount of 40 µL per well into a plate containing the test compound, and cultured at 37°C in a 5% carbon dioxide gas incubator. Seven days later, 20 µL of CellTiter-Glo (registered trademark) (Promega) was added to each well and luminescence was measured.

[8] = test system: human colorectal cancer strain GP2d; type: cell-based
Description: (§4) A test compound was dispensed into a U-bottom 384-well plate as 40 nL serially diluted dimethyl sulfoxide solutions using a liquid handler Echo (LABCYTE). As for human colorectal cancer strain GP2d (ECACC), a cell suspension was prepared so as to have 500 cells/40 µL in a Dulbecco's modified Eagle medium supplemented with 10% fetal bovine serum (Sigma). This cell suspension was dispensed in an amount of 40 µL per well into a plate containing the test compound, and cultured at 37°C in a 5% carbon dioxide gas incubator. Seven days later, 20 µL of CellTiter-Glo (registered trademark) (Promega) was added to each well and luminescence was measured.

[9] = test system: human pancreatic cancer strain KP4; type: cell-based
Description: as §4, with “pancreatic” for “colorectal”, “KP4 (Institute of Physical and Chemical Research),” for “GP2d (ECACC),”, “DMEM/Ham's F-12” for “Dulbecco's modified Eagle”, “medium (Nacalai Tesque)” for “medium”

[10] = test system: human lung cancer strain NCI-H441; test: NCI-H441 cell proliferation inhibitory activity (CellTiter-Glo, 4 days); type: cell-based; conditions: read-out: NCl-H441 IC50
Method in brief: as §3

[11] = target: GDP-bound KRAS wild-type protein (Homo sapiens, UniProt P01116); test: Binding to KRAS by surface plasmon resonance (SPR), dissociation constant KD
Method in brief: as §1

[12] = ratio of KD for HRAS wild-type protein to KD for KRAS
[13] = ratio of KD for GDP-bound NRAS wild-type protein to KD for KRAS

GDP-bound KRAS wild-type protein, sequence (P01116 1-188 isoform P01116-2): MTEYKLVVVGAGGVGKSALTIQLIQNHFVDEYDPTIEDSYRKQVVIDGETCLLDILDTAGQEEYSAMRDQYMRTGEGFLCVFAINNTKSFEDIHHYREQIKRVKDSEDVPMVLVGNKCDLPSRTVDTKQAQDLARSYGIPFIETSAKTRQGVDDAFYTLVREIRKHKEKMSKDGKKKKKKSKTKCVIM
HRAS wild-type protein, sequence (P01112 whole entry): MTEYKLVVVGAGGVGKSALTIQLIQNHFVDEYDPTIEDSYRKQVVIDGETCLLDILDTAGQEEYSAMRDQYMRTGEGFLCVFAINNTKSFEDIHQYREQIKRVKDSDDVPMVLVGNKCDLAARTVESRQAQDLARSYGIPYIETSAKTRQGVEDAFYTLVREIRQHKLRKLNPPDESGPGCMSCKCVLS
GDP-bound NRAS wild-type protein, sequence (P01111 whole entry): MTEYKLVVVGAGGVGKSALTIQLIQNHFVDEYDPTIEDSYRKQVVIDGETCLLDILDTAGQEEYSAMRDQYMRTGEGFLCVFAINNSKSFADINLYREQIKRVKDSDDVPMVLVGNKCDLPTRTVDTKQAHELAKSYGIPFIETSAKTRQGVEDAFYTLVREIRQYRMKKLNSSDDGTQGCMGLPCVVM

`CCC[C@H]1C(=O)N[C@@H]([C@@H](C)CC)C(=O)N2CCC[C@H]2C(=O)N(C)[C@H]2C/C=C\CCN(C2=O)[C@@H](Cc2ccc(C(F)(F)F)cc2)C(=O)N(C)CC(=O)N[C@@H](CCc2ccc(C(F)(F)F)c(OC)c2)C(=O)N2C[C@H](OCC)C[C@H]2C(=O)N(C)C2(CCC2)C(=O)N(C)[C@@H](C2CCCC2)C(=O)N(C)[C@H](C(=O)N(C)C)CC(=O)N1C` [PP2320, (1S,4S,10S,13S,17S,20S,26S,28R,32S,38S,42Z)-20-cyclopentyl-28-ethoxy-32-[2-[3-methoxy-4-(trifluoromethyl)phenyl]ethyl]-N,N,2,14,18,21,24,36-octamethyl-10-[(1S)-1-methylpropyl]-3,9,12,15,19,22,25,31,34,37,45-undecaoxo-13-propyl-38-[[4-(trifluoromethyl)phenyl]methyl]spiro[2,8, 11,14,18,21,24,30,33,36,39-undecazatetracyclo[37.5.1.0^4,8.0^26,30]pentatetracont-42-ene-23,1'-cyclobutane]-17-carboxamide] was tested, and the IC50 [1] was 1.3 nM, the “HRAS /KRAS” value ([2]; ratio of the KD value with respect to HRAS wild-type protein to the KD value with respect to KRAS) was “A (a compound having 10 or more and less than 20 is denoted as A)” and the “NRAS /KRAS” value ([3]; ratio of the KD value with respect to GDP-bound NRAS wild-type protein to the KD value with respect to KRAS) was “A (a compound having 10 or more and less than 20 is denoted as A)”. For the same molecule, the IC50 [4] was 5.6 nM, the IC50 [5] was 1.2 nM and the IC50 [6] was 0.6 nM. It also gave an IC50 [7] of 8.7 nM, an IC50 [8] of 3.1 nM and an IC50 [9] of 4.8 nM.

`CCO[C@@H]1C[C@H]2C(=O)NC3(CCCC3)C(=O)N(C)[C@@H](C3CCCC3)C(=O)N(C)[C@H](C(=O)N(C)C)CC(=O)N(C)[C@@H](CC(C)C)C(=O)N[C@@H]([C@@H](C)CC)C(=O)N(C)CC(=O)N(C)[C@H]3C/C(F)=C\CCN(C3=O)[C@@H](Cc3ccc(C(F)(F)F)cc3)C(=O)N(C)CC(=O)N[C@@H](CCc3cc(F)c(C(F)(F)F)c(F)c3)C(=O)N2C1` [PP3510, (2S,8S,12R,14S,20S,23S,27S,30S,36S,38E)-20-cyclopentyl-8-[2-[3,5-difluoro-4-(trifluoromethyl)phenyl]ethyl]-12-ethoxy-38-fluoro-27-isobutyl-N,N,4,19,22,26,32,35-octamethyl-30-[(1S)-1-methylpropyl]-3,6,9,15,18,21,25,28,31,34,42-undecaoxo-2-[[4-(trifluoromethyl)phenyl]methyl]spiro[1,4,7,10,16,19,22,26,29,32,35-undecazatricyclo[34.5.1.0^10,14]dotetracont-38-ene-17,1'-cyclopentane]-23-carboxamide] was tested, and the IC50 [1] was 11.5 nM, the “HRAS /KRAS” value [2, 12] was “B (a compound having 3 or more and less than 10 is denoted as B)” and the “NRAS /KRAS” value [3, 13] was “B (a compound having 3 or more and less than 10 is denoted as B)”. It also gave an IC50 [4] of 6.6 nM, an IC50 [5] of 1.2 nM and an IC50 [6] of 11.1 nM. The IC50 [7] was 23.6 nM, the IC50 [8] was 13.7 nM and the IC50 [9] was 16.8 nM.

`CCCOC[C@H]1C(=O)N[C@@H](C2CCCC2)C(=O)N(CCC)CC(=O)N(C)[C@H]2C/C=C\CCN(C2=O)[C@@H](Cc2ccc(C(F)F)cc2)C(=O)N(C)CC(=O)N[C@@H](CCc2ccc(C(F)(F)F)c(Cl)c2)C(=O)N2C[C@H](OC(C)C)C[C@H]2C(=O)N(C)C2(CCC2)C(=O)N(C)[C@@H](C(CC)CC)C(=O)N(C)[C@H](C(=O)N(C)C)CC(=O)N1C` [PP3489] was tested, and the IC50 ([10]; NCI-H441 cells, 4 days) was 45 nM, the “HRAS /KRAS” value [2, 12] was “A (a compound having 10 or more and less than 20 is denoted as A)” and the Kd ([11]; Single Cycle Kinetics) was 1.3 nM. The “NRAS /KRAS” value [3, 13] was “AA (a compound having 20 or more is denoted as AA)”.

In the case of `CCO[C@@H]1C[C@H]2C(=O)NC3(CC(C)(C)C3)C(=O)N(C)[C@@H](C(CC)CC)C(=O)N(C)[C@H](C(=O)N(C)C)CC(=O)N(C)[C@@H](COC)C(=O)N[C@@H]([C@@H](C)CC)C(=O)N(C)CC(=O)N(C)[C@H]3C/C=C\CCN(C3=O)[C@@H](CC3CCCCC3)C(=O)N(C)CC(=O)N[C@@H](CCc3ccc(C(F)(F)F)c(Cl)c3)C(=O)N2C1` [PP2468], the IC50 ([10]; NCI-H441 cells, 4 days) is reported as 72.2 nM, the “HRAS /KRAS” value [2, 12] is reported as “A (a compound having 10 or more and less than 20 is denoted as A)” and the Kd ([11]; 1:1 binding model) is reported as 1.3 nM. The “NRAS /KRAS” value [3, 13] was “AA (a compound having 20 or more is denoted as AA)”.

With `CCO[C@H](C)[C@@H]1NC(=O)[C@H](CC(C)C)N(C)C(=O)C[C@@H](C(=O)N(C)CC)N(C)C(=O)[C@H](C2CCCC2)N(C)C(=O)C2(CC(C)(C)C2)NC(=O)[C@@H]2C[C@H](C)CN2C(=O)[C@H](CCc2cc(F)c(C(F)(F)F)c(F)c2)NC(=O)CN(C)C(=O)[C@H](Cc2ccc(C)cc2)N2CC/C=C\C[C@@H](C2=O)N(C)C(=O)CN(C)C1=O` [PP2414] the IC50 ([10]; NCI-H441 cells, 4 days) was 9.8 nM, the “HRAS /KRAS” value [2, 12] was “A (a compound having 10 or more and less than 20 is denoted as A)” and the Kd ([11]; 1:1 binding model) was 0.33 nM. For the same molecule, the “NRAS /KRAS” value [3, 13] was “A (a compound having 10 or more and less than 20 is denoted as A)”.

For `CCO[C@@H]1C[C@H]2C(=O)NC3(CCC3)C(=O)N(C)[C@@H](C3CCCC3)C(=O)N(C)[C@H](C(=O)N3CCOCC3)CC(=O)N(C)[C@@H](CC(C)C)C(=O)N[C@@H]([C@@H](C)CC)C(=O)N(C)CC(=O)N(C)[C@H]3C/C=C\CCN(C3=O)[C@@H](Cc3ccc(C(F)(F)F)cc3)C(=O)N(C)CC(=O)N[C@@H](CCc3cc(F)c(C(F)(F)F)c(F)c3)C(=O)N2C1` [PP1282], the IC50 ([10]; 50% proliferation inhibitory concentration, four days) was 12.3 nM, the “HRAS /KRAS” value ([2]; ratio of KD with respect to HRAS wild-type protein to KD with respect to KRAS) was “A (a compound having 10 or more and less than 20 is denoted as A)” and the Kd ([11]; Single Cycle Kinetics, 1:1 binding model) was 0.2 nM. For the same molecule, the “NRAS /KRAS” value ([3]; ratio of KD with respect to GDP-bound NRAS wild-type protein to KD with respect to KRAS) was “A (a compound having 10 or more and less than 20 is denoted as A)”.

`CCO[C@@H]1C[C@H]2C(=O)OC3(CCC3)C(=O)N(C)[C@@H](C3CCCC3)C(=O)N(C)[C@H](C(=O)N(C)C)CC(=O)N(C)[C@@H](CC(C)C)C(=O)N[C@@H]([C@@H](C)CC)C(=O)N(C)CC(=O)N(C)[C@H]3C/C=C\CCN(C3=O)[C@@H](Cc3ccc(C)cc3)C(=O)N(C)CC(=O)N[C@@H](CCc3ccc(C(F)(F)F)c(OC)c3)C(=O)N2C1` [PP3382] was tested, and the IC50 ([10]; NCI-H441 cells, 4 days) was 5.2 nM, the “HRAS /KRAS” value [2, 12] was “B (a compound having 3 or more and less than 10 is denoted as B)” and the Kd ([11]; Single Cycle Kinetics) was 0.2 nM. The “NRAS /KRAS” value [3, 13] was “A (a compound having 10 or more and less than 20 is denoted as A)”.

From patent publication EP4603105A1, “PHARMACEUTICAL COMPOSITION CONTAINING CYCLIC COMPOUND HAVING SELECTIVE KRAS INHIBITORY EFFECT AGAINST HRAS AND NRAS” (CHUGAI SEIYAKU KABUSHIKI KAISHA, priority 2022, dated 2024)
